Measured values as given in PMC3995681, “Structural, Kinetic and Proteomic Characterization of Acetyl Phosphate-Dependent Bacterial Protein Acetylation” (PLoS ONE, 2014).

Key:
[1] = target: T1, GapA (glyceraldehyde-3-phosphate dehydrogenase) (Escherichia coli, UniProt P0A9B2); experiment: X-ray crystallography; settings: NAD+-binding site, part of the molecules in the asymmetric unit
T1 construct: full ORF, N-terminal His6 tag plus TDPALRA spacer (ASKA clone, pCA24N), expressed in E. coli BL21(DE3); tetramer
T1 sequence (P0A9B2 whole entry): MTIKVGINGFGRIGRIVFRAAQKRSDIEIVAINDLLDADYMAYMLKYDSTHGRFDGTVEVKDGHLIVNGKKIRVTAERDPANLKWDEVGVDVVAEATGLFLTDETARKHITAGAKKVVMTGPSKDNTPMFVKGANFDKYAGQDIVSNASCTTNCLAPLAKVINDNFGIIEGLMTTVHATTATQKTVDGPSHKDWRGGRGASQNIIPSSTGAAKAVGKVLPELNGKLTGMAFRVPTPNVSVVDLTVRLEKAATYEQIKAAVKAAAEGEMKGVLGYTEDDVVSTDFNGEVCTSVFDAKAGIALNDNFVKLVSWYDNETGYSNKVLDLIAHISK

[2] = target: T1, GapA (glyceraldehyde-3-phosphate dehydrogenase); experiment: X-ray crystallography, crystal soak ( […] sec); assay type: binding; settings: covalent; acetylation of K46, K249, K257, K116; pH 7.5
[3] = target: T2, LpdA (dihydrolipoyl dehydrogenase) (Escherichia coli, UniProt P0A9P0); experiment: in vitro acetylation, anti-acetyllysine Western blot and MS1 Filtering; assay type: biochemical; settings: covalent; non-enzymatic lysine acetylation, non-saturating; 5-20 mM acP, 10 mM MgCl2, pH 7.3, 37°C
T2 construct: full ORF, N-terminal His6 tag plus TDPALRA spacer (ASKA clone, pCA24N), expressed in E. coli BL21(DE3)
T2 sequence (P0A9P0 whole entry): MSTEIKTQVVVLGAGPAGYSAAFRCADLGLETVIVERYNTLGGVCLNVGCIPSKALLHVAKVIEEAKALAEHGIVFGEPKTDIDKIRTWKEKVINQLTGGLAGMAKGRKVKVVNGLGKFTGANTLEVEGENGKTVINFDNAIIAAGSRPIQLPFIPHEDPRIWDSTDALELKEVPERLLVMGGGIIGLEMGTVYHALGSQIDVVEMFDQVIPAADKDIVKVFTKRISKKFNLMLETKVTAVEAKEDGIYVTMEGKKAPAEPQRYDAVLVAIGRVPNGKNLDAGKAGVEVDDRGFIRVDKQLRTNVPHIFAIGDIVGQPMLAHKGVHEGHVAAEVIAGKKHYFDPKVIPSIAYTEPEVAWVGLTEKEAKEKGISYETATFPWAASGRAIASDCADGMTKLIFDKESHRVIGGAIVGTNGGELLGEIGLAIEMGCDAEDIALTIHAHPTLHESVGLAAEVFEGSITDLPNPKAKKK

[4] = target: T3, TpiA (triosephosphate isomerase) (Escherichia coli, UniProt P0A858); experiment: X-ray crystallography, crystal soak ( […] sec); assay type: binding; settings: pH 6.5; active site near K11; non-covalent (K11 not acetylated)
T3 construct: full ORF, N-terminal His6 tag plus TDPALRA spacer (ASKA clone, pCA24N), expressed in E. coli BL21(DE3)
T3 sequence (P0A858 whole entry): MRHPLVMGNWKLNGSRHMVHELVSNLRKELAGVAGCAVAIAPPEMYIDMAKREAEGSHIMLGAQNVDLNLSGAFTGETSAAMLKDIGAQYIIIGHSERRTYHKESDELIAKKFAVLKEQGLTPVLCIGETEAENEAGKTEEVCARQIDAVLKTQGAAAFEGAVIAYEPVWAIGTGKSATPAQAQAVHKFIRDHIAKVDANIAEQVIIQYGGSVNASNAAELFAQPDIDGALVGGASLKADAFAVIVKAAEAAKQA

RNAP sigma70 holoenzyme = target: T4, RNAP sigma70 holoenzyme (Escherichia coli, UniProt P00579+P0A7Z4+P0A8V2); experiment: in vitro acetylation, anti-acetyllysine Western blot and MS1 Filtering; assay type: biochemical; settings: covalent; acetylation of RpoA K297, RpoB K1065, RpoD K493 and K593; 10 mM acP, 30 min, 10 mM MgCl2
T4 construct: gene rpoA; with DNA-directed RNA polymerase subunit beta'; DNA-directed RNA polymerase subunit omega
T4 sequence (P0A7Z4 whole entry): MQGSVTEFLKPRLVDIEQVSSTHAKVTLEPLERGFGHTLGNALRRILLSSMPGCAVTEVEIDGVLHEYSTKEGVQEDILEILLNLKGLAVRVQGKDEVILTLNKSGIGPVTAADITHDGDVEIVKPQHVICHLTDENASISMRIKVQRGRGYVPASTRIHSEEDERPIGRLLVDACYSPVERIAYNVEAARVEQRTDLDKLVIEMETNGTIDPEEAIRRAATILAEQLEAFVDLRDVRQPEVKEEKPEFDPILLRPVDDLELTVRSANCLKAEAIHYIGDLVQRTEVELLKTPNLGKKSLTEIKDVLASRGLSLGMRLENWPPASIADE
T4 sequence (P0A8V2 whole entry): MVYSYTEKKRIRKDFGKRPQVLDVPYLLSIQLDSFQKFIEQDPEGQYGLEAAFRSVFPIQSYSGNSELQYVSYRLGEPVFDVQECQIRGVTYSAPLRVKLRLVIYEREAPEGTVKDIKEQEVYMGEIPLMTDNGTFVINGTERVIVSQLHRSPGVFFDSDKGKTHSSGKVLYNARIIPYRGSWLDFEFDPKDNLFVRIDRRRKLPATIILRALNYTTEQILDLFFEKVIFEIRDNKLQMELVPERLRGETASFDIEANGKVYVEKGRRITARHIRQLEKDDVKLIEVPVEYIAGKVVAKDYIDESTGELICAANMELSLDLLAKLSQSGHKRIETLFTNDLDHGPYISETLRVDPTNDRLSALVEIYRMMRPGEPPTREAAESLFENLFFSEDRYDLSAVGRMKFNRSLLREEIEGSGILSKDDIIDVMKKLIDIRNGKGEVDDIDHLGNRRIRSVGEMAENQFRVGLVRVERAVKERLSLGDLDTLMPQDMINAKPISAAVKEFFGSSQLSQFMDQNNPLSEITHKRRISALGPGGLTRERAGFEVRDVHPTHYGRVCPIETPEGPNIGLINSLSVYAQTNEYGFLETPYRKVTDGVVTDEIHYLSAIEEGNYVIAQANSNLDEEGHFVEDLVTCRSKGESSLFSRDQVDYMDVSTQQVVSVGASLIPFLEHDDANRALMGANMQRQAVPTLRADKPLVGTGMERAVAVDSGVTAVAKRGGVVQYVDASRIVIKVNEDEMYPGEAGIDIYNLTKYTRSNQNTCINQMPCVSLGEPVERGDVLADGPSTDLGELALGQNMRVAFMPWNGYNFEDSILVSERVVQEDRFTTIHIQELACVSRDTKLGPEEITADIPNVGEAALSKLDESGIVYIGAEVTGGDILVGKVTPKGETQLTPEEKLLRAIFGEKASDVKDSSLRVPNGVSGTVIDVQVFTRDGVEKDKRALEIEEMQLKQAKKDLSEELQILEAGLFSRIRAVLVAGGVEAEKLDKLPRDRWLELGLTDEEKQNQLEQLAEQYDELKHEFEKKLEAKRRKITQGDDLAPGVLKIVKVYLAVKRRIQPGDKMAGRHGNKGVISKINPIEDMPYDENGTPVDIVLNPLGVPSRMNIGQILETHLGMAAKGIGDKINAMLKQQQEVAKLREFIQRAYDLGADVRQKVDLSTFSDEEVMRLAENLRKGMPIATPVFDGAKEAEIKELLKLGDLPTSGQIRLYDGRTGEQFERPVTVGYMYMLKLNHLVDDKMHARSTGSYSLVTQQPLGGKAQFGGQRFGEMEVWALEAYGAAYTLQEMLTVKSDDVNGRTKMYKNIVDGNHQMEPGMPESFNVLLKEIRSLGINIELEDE
T4 sequence (P00579 whole entry): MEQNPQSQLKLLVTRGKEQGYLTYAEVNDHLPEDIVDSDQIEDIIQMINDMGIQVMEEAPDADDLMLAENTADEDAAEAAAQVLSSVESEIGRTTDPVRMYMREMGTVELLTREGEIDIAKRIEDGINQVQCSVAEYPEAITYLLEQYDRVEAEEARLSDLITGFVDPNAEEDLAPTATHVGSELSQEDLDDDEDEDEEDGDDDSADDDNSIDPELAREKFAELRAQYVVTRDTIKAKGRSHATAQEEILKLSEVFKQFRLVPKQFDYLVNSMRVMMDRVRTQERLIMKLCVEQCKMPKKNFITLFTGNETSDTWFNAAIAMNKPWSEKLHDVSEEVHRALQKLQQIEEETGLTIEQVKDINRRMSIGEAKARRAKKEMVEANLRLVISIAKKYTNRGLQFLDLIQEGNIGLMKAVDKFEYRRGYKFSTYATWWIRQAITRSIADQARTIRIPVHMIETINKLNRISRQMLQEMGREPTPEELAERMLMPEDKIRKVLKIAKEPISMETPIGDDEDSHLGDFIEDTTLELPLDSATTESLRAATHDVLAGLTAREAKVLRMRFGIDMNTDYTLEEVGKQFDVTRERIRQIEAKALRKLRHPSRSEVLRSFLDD
T4 sequence (P0A8T7 whole entry partner): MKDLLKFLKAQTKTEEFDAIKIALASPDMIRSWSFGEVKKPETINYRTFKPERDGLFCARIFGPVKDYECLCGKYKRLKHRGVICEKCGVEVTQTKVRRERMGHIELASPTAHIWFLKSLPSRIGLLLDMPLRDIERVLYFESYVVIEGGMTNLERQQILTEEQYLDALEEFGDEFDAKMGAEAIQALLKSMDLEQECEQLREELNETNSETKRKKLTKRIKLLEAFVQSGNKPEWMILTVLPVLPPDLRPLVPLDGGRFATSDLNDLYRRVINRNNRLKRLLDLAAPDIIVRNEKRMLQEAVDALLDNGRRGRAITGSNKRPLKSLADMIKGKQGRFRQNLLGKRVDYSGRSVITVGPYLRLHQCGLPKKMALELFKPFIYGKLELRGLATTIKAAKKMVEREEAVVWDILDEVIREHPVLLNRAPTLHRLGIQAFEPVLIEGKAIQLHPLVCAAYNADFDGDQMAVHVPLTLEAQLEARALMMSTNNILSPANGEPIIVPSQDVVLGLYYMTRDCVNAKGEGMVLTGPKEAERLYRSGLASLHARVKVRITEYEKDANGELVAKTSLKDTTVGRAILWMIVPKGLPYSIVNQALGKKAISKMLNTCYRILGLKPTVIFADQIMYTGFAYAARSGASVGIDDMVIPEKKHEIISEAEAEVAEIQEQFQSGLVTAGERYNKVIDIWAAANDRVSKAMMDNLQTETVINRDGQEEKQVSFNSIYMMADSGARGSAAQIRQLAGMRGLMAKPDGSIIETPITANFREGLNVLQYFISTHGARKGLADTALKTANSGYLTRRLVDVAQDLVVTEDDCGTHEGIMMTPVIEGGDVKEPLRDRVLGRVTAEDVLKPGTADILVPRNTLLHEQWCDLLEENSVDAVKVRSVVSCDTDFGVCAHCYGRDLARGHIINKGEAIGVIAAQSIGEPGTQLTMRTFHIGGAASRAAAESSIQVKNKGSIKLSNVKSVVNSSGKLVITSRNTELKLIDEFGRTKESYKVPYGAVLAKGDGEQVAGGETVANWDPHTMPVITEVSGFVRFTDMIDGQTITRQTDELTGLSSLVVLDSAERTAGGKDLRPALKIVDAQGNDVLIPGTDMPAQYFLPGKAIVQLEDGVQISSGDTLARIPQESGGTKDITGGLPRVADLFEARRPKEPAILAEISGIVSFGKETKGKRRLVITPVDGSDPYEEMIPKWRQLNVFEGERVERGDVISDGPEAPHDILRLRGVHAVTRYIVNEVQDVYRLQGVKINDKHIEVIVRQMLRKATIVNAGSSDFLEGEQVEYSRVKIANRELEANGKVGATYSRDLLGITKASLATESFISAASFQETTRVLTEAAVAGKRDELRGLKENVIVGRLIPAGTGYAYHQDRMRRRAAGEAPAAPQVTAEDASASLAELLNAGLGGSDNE
T4 sequence (P0A800 2-91 partner): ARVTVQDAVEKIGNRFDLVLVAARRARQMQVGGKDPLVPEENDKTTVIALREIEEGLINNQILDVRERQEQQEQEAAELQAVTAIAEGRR

NC(=O)c1ccc[n+]([C@@H]2O[C@H](COP(=O)(O)OP(=O)(O)OC[C@H]3O[C@@H](n4cnc5c(N)ncnc54)[C@H](O)[C@@H]3O)[C@@H](O)[C@H]2O)c1 [NAD^+]
X-ray crystallography [1]: had either NAD^+ or pyrophosphate bound in the NAD^+-binding site

O=P(O)(O)OP(=O)(O)O [pyrophosphate]
X-ray crystallography ([1]; source of ligand not told): had either NAD^+ or pyrophosphate bound in the NAD^+-binding site

CC(=O)OP(=O)(O)O [acP]
X-ray crystallography, crystal soak (<30 sec) [2]: acP-dependent acetylation had already occurred on four residues (i.e., K46, K249, K257, and K116)
in vitro acetylation, anti-acetyllysine Western blot and MS1 Filtering [3]: when incubated with acP, purified LpdA became acetylated in a dose- and time-dependent manner
X-ray crystallography, crystal soak (<30 sec) [4]: The structures showed that acP bound near K11, where the substrate DHAP is seen to bind
in vitro acetylation, anti-acetyllysine Western blot and MS1 Filtering (RNAP sigma70 holoenzyme): significant relative increases in acetylation were observed for K297 of RpoA, for K1065 of RpoB
